The AUC is concentration integrated over time. A word on the Cmax: it is the maximum level reached in the sampled fluid or tissue. In general, Tmax refers to the time at which the peak concentration occurs.

The data set in a line: ALL-RET pharmacokinetic analysis. Type of data set: in vivo, human. To be noted: for free fraction of Cmin in a steady state: 450 mg BID; for AUC / Cmax / concentration at 10 h / Tmax: human, plasma, oral; for concentration at 10 h: Cmin (plasma concentration at 10 h after administration), mean ± SD [min–max]; for Tmax: median [min–max].
Where [1] appears, read: 450 mg, Day 15, 450 mg BID, N=5.
Where [2] appears, read: 600 mg, Day 15, 600 mg BID, N=3.

On to `CCc1cc2c(cc1N1CCC(N3CCOCC3)CC1)C(C)(C)c1[nH]c3cc(C#N)ccc3c1C2=O` [alectinib], for which the “free fraction of Cmin in a steady state” value is < 4.8 ng/mL. The “free fraction of Cmin in a steady state” value (equivalent of ng/mL value) was < 10 nM. For the setting “450 mg”, this compound gave an AUC of 4820 ng·h/mL and a Cmax of 576 ± 215 ng/mL. In addition, where the note is “450 mg, Day 1, 450 mg, N=6”, the concentration at 10 h came out at 118 ng/mL and the Tmax came out at 5.91 h. For the same compound, under setting [1], the concentration at 10 h was 483 ng/mL and the Tmax worked out at 7.97 h. For the setting “600 mg”, this compound yielded an AUC of 8600 ng·h/mL and a Cmax of 1050 ng/mL. Where the note is “600 mg, Day 1, 600 mg, N=6”, the concentration at 10 h came to 278 ng/mL and the time to peak (Tmax) was found to be 7.01 h. For the same compound, under setting [2], the concentration at 10 h is 911 ng/mL and the Tmax turned out to be 5.77 h.

Source of the values: publication PMC7867784 (Translational Lung Cancer Research, 2021).
